Among the data in PubChem BioAssay AID330 (DTP/NCI, 2004) are T/C values, retold here.

This assay has as its system P388 leukemia ip, CD2F1 mice, survival T/C. The assay can be described thus: NCI In Vivo Anticancer Drug Screen. Data for tumor model P388 Leukemia (intraperitoneal) in CD2F1 (CDF1) mice. The note with it: endpoint: median survival time, higher = longer survival. The method, boiled down:
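Mice carrying the transplanted tumor received test compound or vehicle. Survival was recorded in each group, and the value is the treated-group measurement divided by that of the vehicle-treated control group.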

[1] abbreviates: dose: 12.5 mg/kg/injection, schedule: Q01DX009 (ip), vehicle: saline with Tween-80.
[2] abbreviates: dose: 25.0 mg/kg/injection, schedule: Q01DX009 (ip), vehicle: saline with Tween-80.
Where [3] appears, read: dose: 15.0 mg/kg/injection, schedule: Q01DX005 (ip), vehicle: saline with Tween-80.
The mark [4] stands for this setting: dose: 60.0 mg/kg/injection, schedule: Q01DX005 (ip), vehicle: saline with Tween-80.
Setting [5] is: dose: 50.0 mg/kg/injection, schedule: Q01DX009 (ip), vehicle: saline with Tween-80.
The mark [6] stands for this setting: dose: 100.0 mg/kg/injection, schedule: Q01DX009 (ip), vehicle: saline with Tween-80.
[7] abbreviates: dose: 200.0 mg/kg/injection, schedule: Q01DX009 (ip), vehicle: saline with Tween-80.
Where [8] appears, read: dose: 50.0 mg/kg/injection, schedule: Q01DX005 (ip), vehicle: saline with Tween-80.
Where [9] appears, read: dose: 100.0 mg/kg/injection, schedule: Q01DX005 (ip), vehicle: saline with Tween-80.
[10] abbreviates: dose: 200.0 mg/kg/injection, schedule: Q01DX005 (ip), vehicle: saline with Tween-80.
Setting [11] is: dose: 50.0 mg/kg/injection, schedule: Q01DX009 (ip), vehicle: Klucel (hydroxypropylcellulose) (HPC).
Where [12] appears, read: dose: 100.0 mg/kg/injection, schedule: Q01DX009 (ip), vehicle: Klucel (hydroxypropylcellulose) (HPC).
The mark [13] stands for this setting: dose: 200.0 mg/kg/injection, schedule: Q01DX009 (ip), vehicle: Klucel (hydroxypropylcellulose) (HPC).
[14] abbreviates: dose: 120.0 mg/kg/injection, schedule: Q01DX005 (ip), vehicle: saline with Tween-80.
Setting [15] is: dose: 25.0 mg/kg/injection, schedule: Q01DX005 (ip), vehicle: saline with Tween-80.

SMILES strings stand for the structures. “And” between values parts separate entries of the source, which are not always exact repeats. Identical values can stand only once. Toxic doses and inconclusive results are not listed.

`COc1cccc2c1C(=O)c1c(O)c3c(c(O)c1C2=O)CC(O)(C(=O)CO)CC3OC1CC(N)C(O)C(C)O1.[Cl][Pt+2][Cl].[NH2-].[NH2-]` (stereo unspecified): the T/C (dose: 8.0 mg/kg/injection, schedule: Q04DX003 (ip), vehicle: DMSO) was 171 % of control and 182 % of control; the T/C (dose: 16.0 mg/kg/injection, schedule: Q04DX003 (ip), vehicle: DMSO) was 174 % of control and 193 % of control; the T/C (dose: 32.0 mg/kg/injection, schedule: Q04DX003 (ip), vehicle: DMSO) is 118 % of control; the T/C (dose: 64.0 mg/kg/injection, schedule: Q04DX003 (ip), vehicle: DMSO) was 100 % of control.

Turning to `CS/C(=C1/C(=O)N(c2ccccc2)N=C1c1ccc(Br)cc1)N1CC1`, the T/C is 95 % of control (dose: 100.0 mg/kg/injection, schedule: Q04DX003 (ip), vehicle: Klucel (hydroxypropylcellulose) (HPC)) and 101 % of control (dose: 200.0 mg/kg/injection, schedule: Q04DX003 (ip), vehicle: Klucel (hydroxypropylcellulose) (HPC)).

Regarding `C[N+](C)(C)c1ccc(/C=C/[N+](=O)[O-])cc1`, the T/C runs as follows: under setting [1], 95 % of control; under setting [2], 102 % of control.

Consider `Cc1cc2cc3c4c(nnc(NN)c4c2o1)-c1ccccc1CC3`, for which the T/C runs as follows: (dose: 3.75 mg/kg/injection, schedule: Q01DX005 (ip), vehicle: saline with Tween-80) 99 % of control; (dose: 7.5 mg/kg/injection, schedule: Q01DX005 (ip), vehicle: saline with Tween-80) 101 % of control; under setting [3], 99 % of control.

With `O=C1ON=C(COc2ccccc2)/C1=C\c1ccc(Cl)cc1`, the T/C was 105 % of control under setting [3]; 101 % of control (dose: 30.0 mg/kg/injection, schedule: Q01DX005 (ip), vehicle: saline with Tween-80); 104 % of control under setting [4].

In the case of `Cc1nc(Nc2ccc(F)cc2)c2c(C)c[nH]c2n1`, the T/C (dose: 50.0 mg/kg/injection, schedule: Q01DX005 (ip), vehicle: Klucel (hydroxypropylcellulose) (HPC)) was 90 % of control; the T/C (dose: 100.0 mg/kg/injection, schedule: Q01DX005 (ip), vehicle: Klucel (hydroxypropylcellulose) (HPC)) was 88 % of control; the T/C (dose: 200.0 mg/kg/injection, schedule: Q01DX005 (ip), vehicle: Klucel (hydroxypropylcellulose) (HPC)) was 89 % of control.

Turning to `CCN(CC)Cc1cc(N)cc(N=Nc2ccc3c(c2)c2ccccc2n3CC)c1O`, the T/C is, setting by setting: under setting [5], 97 % of control; under setting [6], 108 % of control; under setting [7], 105 % of control.

Take `S=C1SC2(CCCC2)NC2=C1CCC2`: the T/C was 90 % of control under setting [5], 93 % of control under setting [6] and 99 % of control under setting [7].

With `Clc1ccc(CN2CCCN(Cc3ccc(Cl)cc3)C2c2cc3ccccc3c3ccccc23)cc1`, the T/C is, setting by setting: under setting [8], 99 % of control; under setting [9], 97 % of control; under setting [10], 93 % of control.

With `COC1/C=C/OC2(C)Oc3c(C)c(O)c4c(O)c(c(/C=N/N5C(C)CN(Cc6ccccc6C#N)CC5C)c(O)c4c3C2=O)NC(=O)/C(C)=C\C=C\C(C)C(O)C(C)C(O)C(C)C(OC(C)=O)C1C` (stereo unspecified), the T/C is, setting by setting: under setting [1], 111 % of control; under setting [2], 118 % of control; under setting [5], 109 % of control; under setting [6], 107 % of control and 108 % of control.

On to `O=c1[nH]c2ccccc2c(=O)n1-c1ccco1`, for which the T/C (dose: 100.0 mg/kg/injection, schedule: Q04DX002 (ip), vehicle: saline) is 100 % of control; the T/C (dose: 200.0 mg/kg/injection, schedule: Q04DX002 (ip), vehicle: saline) is 102 % of control; the T/C (dose: 400.0 mg/kg/injection, schedule: Q04DX002 (ip), vehicle: saline) is 101 % of control.

For `CCCCCCN=C(N)N/N=C(\C)c1ccc2c(c1)Cc1cc(/C(C)=N/NC(N)=NCCCCCC)ccc1-2`, the T/C (dose: 6.25 mg/kg/injection, schedule: Q04DX002 (ip), vehicle: saline with Tween-80) is 98 % of control; the T/C (dose: 12.5 mg/kg/injection, schedule: Q04DX002 (ip), vehicle: saline with Tween-80) was 107 % of control; the T/C (dose: 25.0 mg/kg/injection, schedule: Q04DX002 (ip), vehicle: saline with Tween-80) is 109 % of control; the T/C (dose: 50.0 mg/kg/injection, schedule: Q04DX002 (ip), vehicle: saline with Tween-80) is 116 % of control.

As for `CC(=O)Nc1ncnc2c1c(C(N)=O)cn2C1OC(COC(C)=O)C(OC(C)=O)C1OC(C)=O` (stereo unspecified), the T/C is, setting by setting: (dose: 1.88 mg/kg/injection, schedule: Q01DX005 (ip), vehicle: saline) 107 % of control; (dose: 3.75 mg/kg/injection, schedule: Q01DX005 (ip), vehicle: saline) 117 % of control.

Take `Nc1nnc2cc(Br)ccc2n1`: the T/C was 102 % of control under setting [11], 99 % of control under setting [12] and 100 % of control under setting [13].

Regarding `O=C1Nc2ccccc2C1=Nc1ccc2[nH]c3ccccc3c2c1`, the T/C (dose: 60.0 mg/kg/injection, schedule: Q01DX005 (ip), vehicle: Klucel (hydroxypropylcellulose) (HPC)) is 92 % of control; the T/C (dose: 120.0 mg/kg/injection, schedule: Q01DX005 (ip), vehicle: Klucel (hydroxypropylcellulose) (HPC)) is 93 % of control; the T/C (dose: 240.0 mg/kg/injection, schedule: Q01DX005 (ip), vehicle: Klucel (hydroxypropylcellulose) (HPC)) was 88 % of control.

With `Cc1cc(=O)oc2cc(O)c(C(=O)/C=C/N(C)C)cc12`, the T/C was 92 % of control under setting [4]; 95 % of control under setting [14]; 86 % of control (dose: 240.0 mg/kg/injection, schedule: Q01DX005 (ip), vehicle: saline with Tween-80).

As for `CN(C=O)C(C(=O)Nc1cccc2c(OC(=O)C(N(C)C=O)(N(C)C=O)N(C)C=O)c(N=Nc3ccc(S(=O)(=O)Nc4nccs4)cc3)cc(N=Nc3ccc(S(=O)(=O)Nc4nccs4)cc3)c12)(N(C)C=O)N(C)C=O` (tested in a mixture with another compound), the T/C by setting is: under setting [9], 114 % of control; under setting [10], 115 % of control; (dose: 500.0 mg/kg/injection, schedule: Q01DX001 (ip), vehicle: saline with Tween-80) 109 % of control; (dose: 1000.0 mg/kg/injection, schedule: Q01DX001 (ip), vehicle: saline with Tween-80) 105 % of control; (dose: 2000.0 mg/kg/injection, schedule: Q01DX001 (ip), vehicle: saline with Tween-80) 113 % of control.

Turning to `CC(=O)/C(=C\c1ccc([N+](=O)[O-])o1)C(=O)CCN(C)C`, the T/C by setting is: (dose: 7.5 mg/kg/injection, schedule: Q01DX005 (ip), vehicle: Klucel (hydroxypropylcellulose) (HPC)) 97 % of control; (dose: 15.0 mg/kg/injection, schedule: Q01DX005 (ip), vehicle: Klucel (hydroxypropylcellulose) (HPC)) 107 % of control.

Regarding `COc1ccc(S(=O)(=O)N/N=C/c2ncc[nH]2)cc1`, the T/C by setting is: under setting [15], 99 % of control; under setting [8], 99 % of control; under setting [9], 100 % of control.

For `Cc1csc2nc(-c3ccccc3)cn12`, the T/C was 98 % of control under setting [8], 96 % of control under setting [9] and 97 % of control under setting [10].

Take `CCOC(=O)Cc1ccc(-c2csc(Nc3ccc(F)cc3)n2)cc1`: the T/C under setting [11] is 103 % of control, the T/C under setting [12] was 100 % of control and the T/C under setting [13] is 105 % of control.

Turning to `COc1cccc2c1oc1c3ccc(O)cc3oc(=O)c21`, under “dose: 6.2 mg/kg/injection, schedule: Q01DX007 (ip), vehicle: carboxymethylcellulose (CMC)”, the T/C is 91 % of control.

Regarding `Cc1cc(Nc2ccc(N(CCCl)CCCl)cc2)cc(C)c1O`, the T/C reads like this: (dose: 6.25 mg/kg/injection, schedule: Q01DX009 (ip), vehicle: saline with Tween-80) 151 % of control; under setting [1], 154 % of control and 169 % of control; under setting [2], 169 % of control and 175 % of control.

Take `C=C(C)C(=NC(C)(C)C)Nc1cccc(Cl)c1`: the T/C is, setting by setting: (dose: 50.0 mg/kg/injection, schedule: Q01DX009 (ip), vehicle: saline) 100 % of control; (dose: 100.0 mg/kg/injection, schedule: Q01DX009 (ip), vehicle: saline) 104 % of control; (dose: 200.0 mg/kg/injection, schedule: Q01DX009 (ip), vehicle: saline) 100 % of control.

On to `Cc1ccc(NC(=O)Cc2nc3ccccc3s2)c(C)c1`, for which the T/C runs as follows: under setting [4], 103 % of control; under setting [14], 110 % of control.

Regarding `CC(=O)OC[C@@]1(C)[C@@H]2CC[C@]3(C)[C@H](C(=O)C=C4[C@@H]5CC(C)(C)CC[C@]5(C(=O)O)CC[C@]43C)[C@@]2(C)CC[C@@H]1OC(C)=O`, the T/C was 108 % of control under setting [15]; 87 % of control and 95 % of control under setting [8]; 93 % of control under setting [9].
